Source: PMC2794939 (Biochemistry, 2009)

What was measured:
Assay type in all cases: cell-based, Influenza virus A/Udorn/72
A/M2-V27A/L38F = A/M2-V27A/L38F (Influenza A virus, UniProt P0DOF5, L38F/V27A)
A/M2-V27A = A/M2-V27A (Influenza A virus, UniProt P0DOF5, V27A); conditions: for inhibition of the mutant: 100 µM
A/M2-L26F = A/M2-L26F (Influenza A virus, UniProt P0DOF5, L26F)
A/M2-V27G = A/M2-V27G (Influenza A virus, UniProt P0DOF5, V27G)
A/M2-G34E = A/M2-G34E (Influenza A virus, UniProt P0DOF5, G34E)
A/M2-A30T = A/M2-A30T (Influenza A virus, UniProt P0DOF5, A30T)
A/M2-S31N = A/M2-S31N (Influenza A virus, UniProt P0DOF5, S31N)

Compound	sensitivity of the double mutant channel (A/M2-V27A/L38F)	inhibition of the mutant (A/M2-V27A)	% remaining activity after application of 100 μM compound (A/M2-L26F)	IC50 (A/M2-L26F)	% remaining activity after application of 100 μM compound (A/M2-V27G)	% remaining activity after application of 100 μM compound (A/M2-G34E)	% remaining activity after application of 100 μM compound (A/M2-A30T)	% remaining activity after application of 100 μM compound (A/M2-V27A)	IC50 (A/M2-V27A)	% remaining activity after application of 100 μM compound (A/M2-S31N)	IC50 (A/M2-S31N)	inhibition of the mutant (A/M2-S31N)
NC12CC3CC(CC(C3)C1)C2 [Amantadine, amantadine]	not sensitive	less than 10%	–	–	–	–	–	–	–	–	–	–
C1CCC2(CC1)CCN(C1=NCCN1)CC2 [BL-1743, 2-[3-azaspiro([5],[5])undecanol]-2-imidazoline]	not sensitive	less than 10%	89.2±4.8%	> 10 mM	82.9±9.3%	89.8±6.9%	102±2.3%	97.4±1.8%	> 10 mM	100±0.67%	> 10 mM	–
NC1CCC2(CCCCC2)CC1 [Compound 8, spiro[5.5]undecan-3-amine]	–	–	32.4±3.3%	–	87.9±6.1%	–	98.1±7.0%	46.6±6.6%	–	99.1±0.9%	–	little inhibition
